What was measured:
[1] = target: Tyrosine-protein kinase Lck (Homo sapiens, UniProt P06239); test: Inhibition of LCK (unknown origin)
D(2) dopamine receptor [2] = target: T1, D(2) dopamine receptor (Homo sapiens, UniProt P14416); test: Agonist activity at Dopamine D2 receptor (unknown origin); type: functional
Adenosine receptor A2a = Adenosine receptor A2a (Homo sapiens, UniProt P29274); test: Agonist activity at Adenosine A2a receptor (unknown origin); type: functional
[3] = target: Voltage-gated inwardly rectifying potassium channel KCNH2 (Homo sapiens, UniProt Q12809); test: Inhibition of hERG (unknown origin); type: toxicity
[4] = target: T2, Beta-2 adrenergic receptor (Homo sapiens, UniProt P07550); test: Antagonist activity at Adrenergic b2 receptor (unknown origin); type: functional
Cannabinoid receptor 2 = Cannabinoid receptor 2 (Homo sapiens, UniProt P34972); test: Agonist activity at Cannabinoid CB2 receptor (unknown origin); type: functional
[5] = target: T3, 5-hydroxytryptamine receptor 2A (Homo sapiens, UniProt P28223); test: Agonist activity at 5-HT2A receptor (unknown origin); type: functional
[6] = target: Phosphatidylinositol 4,5-bisphosphate 3-kinase catalytic subunit gamma isoform (Homo sapiens, UniProt P48736); test: Inhibition of PI3Kgamma (unknown origin)
[7] = target: Potassium voltage-gated channel subfamily A member 5 (Homo sapiens, UniProt P22460); test: Inhibition of Kv1.5 (unknown origin)
[8] = target: Kappa-type opioid receptor (Homo sapiens, UniProt P41145); test: Antagonist activity at KOR (unknown origin); type: functional
[9] = target: Sodium-dependent noradrenaline transporter (Homo sapiens, UniProt P23975); test: Inhibition of NET (unknown origin)
[10] = target: T3, 5-hydroxytryptamine receptor 2A; test: Antagonist activity at 5-HT2A receptor (unknown origin); type: functional
[11] = target: Nuclear receptor subfamily 1 group I member 2 (Homo sapiens, UniProt O75469); test: Activation of PXR (unknown origin)
[12] = target: cGMP-inhibited 3',5'-cyclic phosphodiesterase 3A (Homo sapiens, UniProt Q14432); test: Inhibition of PDE3A (unknown origin)
[13] = target: T4, 5-hydroxytryptamine receptor 2C (Homo sapiens, UniProt P28335); test: Antagonist activity at 5-HT2C receptor (unknown origin); type: functional
T4 sequence (P28335 whole entry): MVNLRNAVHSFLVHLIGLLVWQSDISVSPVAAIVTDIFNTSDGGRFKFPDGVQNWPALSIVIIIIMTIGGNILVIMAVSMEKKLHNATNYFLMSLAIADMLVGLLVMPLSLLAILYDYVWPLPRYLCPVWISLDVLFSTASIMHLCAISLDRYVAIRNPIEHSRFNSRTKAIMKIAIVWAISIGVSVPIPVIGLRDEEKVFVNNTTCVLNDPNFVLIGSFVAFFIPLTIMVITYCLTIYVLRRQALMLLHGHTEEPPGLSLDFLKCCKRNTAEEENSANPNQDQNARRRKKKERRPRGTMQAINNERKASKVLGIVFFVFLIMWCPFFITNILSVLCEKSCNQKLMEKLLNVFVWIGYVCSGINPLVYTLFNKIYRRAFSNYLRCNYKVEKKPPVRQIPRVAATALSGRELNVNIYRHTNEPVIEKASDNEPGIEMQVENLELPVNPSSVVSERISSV

Aurora kinase B = Aurora kinase B (Homo sapiens, UniProt Q96GD4); test: Inhibition of Aurora B (unknown origin)
[14] = target: Sodium channel protein type 5 subunit alpha (Homo sapiens, UniProt Q14524); test: Inhibition of Nav1.5 (unknown origin)
[15] = target: T2, Beta-2 adrenergic receptor; test: Agonist activity at Adrenergic b2 receptor (unknown origin); type: functional
Mu-type opioid receptor = Mu-type opioid receptor (Homo sapiens, UniProt P35372); test: Agonist activity at MOR (unknown origin); type: functional
[16] = target: Sodium-dependent serotonin transporter (Homo sapiens, UniProt P31645); test: Inhibition of SERT (unknown origin)
[17] = target: T5, Muscarinic acetylcholine receptor M1 (Homo sapiens, UniProt P11229); test: Agonist activity at Muscarinic M1 receptor (unknown origin); type: functional
T5 sequence (P11229 whole entry): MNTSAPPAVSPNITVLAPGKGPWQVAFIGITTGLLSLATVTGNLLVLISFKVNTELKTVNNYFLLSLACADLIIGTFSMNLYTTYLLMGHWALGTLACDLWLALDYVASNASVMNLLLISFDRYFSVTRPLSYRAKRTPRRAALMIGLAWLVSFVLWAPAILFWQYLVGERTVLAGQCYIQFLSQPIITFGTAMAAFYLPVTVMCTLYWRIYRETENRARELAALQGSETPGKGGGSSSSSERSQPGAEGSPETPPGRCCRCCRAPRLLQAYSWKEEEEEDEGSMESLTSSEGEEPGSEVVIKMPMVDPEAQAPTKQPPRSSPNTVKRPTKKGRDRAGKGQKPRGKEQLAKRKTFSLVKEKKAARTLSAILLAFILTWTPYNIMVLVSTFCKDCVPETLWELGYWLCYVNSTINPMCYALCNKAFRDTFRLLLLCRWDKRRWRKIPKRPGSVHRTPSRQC

[18] = target: T5, Muscarinic acetylcholine receptor M1; test: Antagonist activity at Muscarinic M1 receptor (unknown origin); type: functional
[19] = target: Voltage-gated potassium channel, IKs; KCNQ1(Kv7.1)/KCNE1(MinK) (Homo sapiens, UniProt P15382+P51787); test: Inhibition of KCNQ1/minK (unknown origin); type: protein-complex assay
Acetylcholinesterase = Acetylcholinesterase (Homo sapiens, UniProt P22303); test: Inhibition of AChE (unknown origin)
[20] = target: T6, Muscarinic acetylcholine receptor M2 (Homo sapiens, UniProt P08172); test: Antagonist activity at Muscarinic M2 receptor (unknown origin); type: functional
T6 sequence (P08172 whole entry): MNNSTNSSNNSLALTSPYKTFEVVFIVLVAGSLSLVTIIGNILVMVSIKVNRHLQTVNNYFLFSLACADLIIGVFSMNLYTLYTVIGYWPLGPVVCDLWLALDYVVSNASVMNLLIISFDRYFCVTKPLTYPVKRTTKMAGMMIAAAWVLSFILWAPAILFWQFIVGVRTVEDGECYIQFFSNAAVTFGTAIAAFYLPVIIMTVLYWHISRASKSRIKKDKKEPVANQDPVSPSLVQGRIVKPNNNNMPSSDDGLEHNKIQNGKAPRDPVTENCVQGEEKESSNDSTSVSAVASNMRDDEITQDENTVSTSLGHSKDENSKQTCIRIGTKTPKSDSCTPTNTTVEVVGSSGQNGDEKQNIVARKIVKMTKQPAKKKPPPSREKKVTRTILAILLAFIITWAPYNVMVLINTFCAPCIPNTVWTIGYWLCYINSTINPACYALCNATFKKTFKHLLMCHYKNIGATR

Vasopressin V1a receptor = Vasopressin V1a receptor (Homo sapiens, UniProt P37288); test: Antagonist activity at V1a receptor (unknown origin); type: functional
D(1A) dopamine receptor = D(1A) dopamine receptor (Homo sapiens, UniProt P21728); test: Antagonist activity at Dopamine D1 receptor (unknown origin); type: functional
D(2) dopamine receptor [21] = target: T1, D(2) dopamine receptor; test: Antagonist activity at Dopamine D2 receptor (unknown origin); type: functional
[22] = target: T6, Muscarinic acetylcholine receptor M2; test: Agonist activity at Muscarinic M2 receptor (unknown origin); type: functional
Substance-P receptor = Substance-P receptor (Homo sapiens, UniProt P25103); test: Antagonist activity at NK1 receptor (unknown origin); type: functional
[23] = target: Aryl hydrocarbon receptor (Homo sapiens, UniProt P35869); test: Activation of AhR (unknown origin)
Sequence of Aryl hydrocarbon receptor (P35869 whole entry): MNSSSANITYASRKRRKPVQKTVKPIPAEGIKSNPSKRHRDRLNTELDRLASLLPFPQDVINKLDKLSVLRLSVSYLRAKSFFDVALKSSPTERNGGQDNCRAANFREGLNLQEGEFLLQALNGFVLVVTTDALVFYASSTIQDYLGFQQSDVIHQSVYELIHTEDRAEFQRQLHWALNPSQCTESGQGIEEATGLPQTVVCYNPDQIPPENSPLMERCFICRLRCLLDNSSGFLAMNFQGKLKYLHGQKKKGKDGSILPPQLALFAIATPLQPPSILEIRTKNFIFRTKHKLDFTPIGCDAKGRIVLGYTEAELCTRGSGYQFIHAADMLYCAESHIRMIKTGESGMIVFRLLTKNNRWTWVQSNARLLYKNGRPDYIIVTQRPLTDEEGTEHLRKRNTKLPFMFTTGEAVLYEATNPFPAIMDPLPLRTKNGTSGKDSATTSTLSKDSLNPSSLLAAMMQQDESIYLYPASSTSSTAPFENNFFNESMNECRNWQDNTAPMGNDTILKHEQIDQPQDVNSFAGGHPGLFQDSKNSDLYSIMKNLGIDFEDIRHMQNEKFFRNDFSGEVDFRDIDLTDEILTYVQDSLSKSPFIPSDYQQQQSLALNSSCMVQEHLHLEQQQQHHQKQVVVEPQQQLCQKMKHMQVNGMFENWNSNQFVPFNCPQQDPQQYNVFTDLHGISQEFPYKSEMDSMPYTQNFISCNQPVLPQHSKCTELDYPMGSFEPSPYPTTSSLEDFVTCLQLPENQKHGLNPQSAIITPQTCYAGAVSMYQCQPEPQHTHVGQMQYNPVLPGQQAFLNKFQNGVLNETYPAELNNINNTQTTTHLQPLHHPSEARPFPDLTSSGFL

T1 sequence (P14416 whole entry): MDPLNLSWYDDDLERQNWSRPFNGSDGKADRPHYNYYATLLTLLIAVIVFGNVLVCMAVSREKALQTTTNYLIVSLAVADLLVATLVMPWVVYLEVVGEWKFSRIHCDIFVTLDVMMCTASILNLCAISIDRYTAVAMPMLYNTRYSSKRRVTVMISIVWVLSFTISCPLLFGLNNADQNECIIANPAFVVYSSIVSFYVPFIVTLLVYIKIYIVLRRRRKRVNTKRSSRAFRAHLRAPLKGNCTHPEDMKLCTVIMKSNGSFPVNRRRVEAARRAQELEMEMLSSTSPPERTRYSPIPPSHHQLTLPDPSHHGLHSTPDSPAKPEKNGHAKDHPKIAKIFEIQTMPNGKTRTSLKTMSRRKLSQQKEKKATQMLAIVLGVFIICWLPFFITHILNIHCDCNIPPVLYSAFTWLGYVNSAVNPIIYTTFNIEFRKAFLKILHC
T3 sequence (P28223 whole entry, canonical isoform): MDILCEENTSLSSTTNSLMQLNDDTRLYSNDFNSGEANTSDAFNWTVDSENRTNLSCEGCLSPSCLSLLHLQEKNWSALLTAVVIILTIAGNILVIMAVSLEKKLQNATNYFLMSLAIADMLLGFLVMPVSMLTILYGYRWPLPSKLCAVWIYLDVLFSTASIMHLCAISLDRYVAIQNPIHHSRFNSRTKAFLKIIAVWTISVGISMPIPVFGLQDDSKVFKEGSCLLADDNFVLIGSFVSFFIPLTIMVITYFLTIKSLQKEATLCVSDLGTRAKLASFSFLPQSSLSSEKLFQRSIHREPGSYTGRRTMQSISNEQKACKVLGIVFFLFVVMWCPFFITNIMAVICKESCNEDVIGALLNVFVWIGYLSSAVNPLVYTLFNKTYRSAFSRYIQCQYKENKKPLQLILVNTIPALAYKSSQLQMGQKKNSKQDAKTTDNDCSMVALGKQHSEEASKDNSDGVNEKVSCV
T2 sequence (P07550 whole entry): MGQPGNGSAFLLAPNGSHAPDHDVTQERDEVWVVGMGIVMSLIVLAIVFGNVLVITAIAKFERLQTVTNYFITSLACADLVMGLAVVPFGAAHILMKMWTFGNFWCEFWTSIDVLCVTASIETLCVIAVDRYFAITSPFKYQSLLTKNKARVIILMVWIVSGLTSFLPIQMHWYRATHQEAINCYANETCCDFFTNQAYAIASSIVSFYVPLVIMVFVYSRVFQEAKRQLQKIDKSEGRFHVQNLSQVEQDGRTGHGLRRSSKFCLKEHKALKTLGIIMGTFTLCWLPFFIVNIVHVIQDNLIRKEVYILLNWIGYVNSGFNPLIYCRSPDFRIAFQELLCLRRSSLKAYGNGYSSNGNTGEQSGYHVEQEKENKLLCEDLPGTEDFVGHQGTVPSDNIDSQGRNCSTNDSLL
Sequence of Sodium-dependent serotonin transporter (P31645 whole entry): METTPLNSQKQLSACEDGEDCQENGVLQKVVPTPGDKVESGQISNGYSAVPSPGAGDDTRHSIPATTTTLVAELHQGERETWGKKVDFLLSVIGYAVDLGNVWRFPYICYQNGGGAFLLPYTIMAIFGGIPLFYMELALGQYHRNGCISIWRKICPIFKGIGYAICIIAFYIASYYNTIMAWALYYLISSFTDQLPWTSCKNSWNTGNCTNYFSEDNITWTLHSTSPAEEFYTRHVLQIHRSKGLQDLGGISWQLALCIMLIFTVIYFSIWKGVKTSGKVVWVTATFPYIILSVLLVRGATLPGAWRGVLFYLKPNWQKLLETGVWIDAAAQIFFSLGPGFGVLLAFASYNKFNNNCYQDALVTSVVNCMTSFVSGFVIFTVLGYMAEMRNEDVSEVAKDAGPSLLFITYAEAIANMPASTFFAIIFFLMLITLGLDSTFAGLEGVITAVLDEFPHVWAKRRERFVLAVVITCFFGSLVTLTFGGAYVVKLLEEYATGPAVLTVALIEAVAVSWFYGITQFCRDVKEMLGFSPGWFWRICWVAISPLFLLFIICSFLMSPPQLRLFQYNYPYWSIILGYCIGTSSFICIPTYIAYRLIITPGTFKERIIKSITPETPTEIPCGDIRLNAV
Sequence of Acetylcholinesterase (P22303 whole entry): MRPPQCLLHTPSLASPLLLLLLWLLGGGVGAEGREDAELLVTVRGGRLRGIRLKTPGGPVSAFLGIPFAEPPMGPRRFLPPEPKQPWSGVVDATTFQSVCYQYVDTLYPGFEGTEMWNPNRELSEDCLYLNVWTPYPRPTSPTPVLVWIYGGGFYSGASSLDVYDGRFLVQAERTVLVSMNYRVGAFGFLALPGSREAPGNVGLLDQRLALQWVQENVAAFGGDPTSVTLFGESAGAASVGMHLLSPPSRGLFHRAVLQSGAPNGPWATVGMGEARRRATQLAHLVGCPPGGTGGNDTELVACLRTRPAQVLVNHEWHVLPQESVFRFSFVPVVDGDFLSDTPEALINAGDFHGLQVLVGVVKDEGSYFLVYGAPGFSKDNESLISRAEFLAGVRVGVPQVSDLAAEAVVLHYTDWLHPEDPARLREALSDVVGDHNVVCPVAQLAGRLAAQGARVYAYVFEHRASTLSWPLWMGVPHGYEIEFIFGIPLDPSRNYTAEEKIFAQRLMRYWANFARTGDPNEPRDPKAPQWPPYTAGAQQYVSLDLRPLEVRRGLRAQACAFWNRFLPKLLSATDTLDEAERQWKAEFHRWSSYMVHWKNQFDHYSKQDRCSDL
Sequence of Tyrosine-protein kinase Lck (P06239 whole entry): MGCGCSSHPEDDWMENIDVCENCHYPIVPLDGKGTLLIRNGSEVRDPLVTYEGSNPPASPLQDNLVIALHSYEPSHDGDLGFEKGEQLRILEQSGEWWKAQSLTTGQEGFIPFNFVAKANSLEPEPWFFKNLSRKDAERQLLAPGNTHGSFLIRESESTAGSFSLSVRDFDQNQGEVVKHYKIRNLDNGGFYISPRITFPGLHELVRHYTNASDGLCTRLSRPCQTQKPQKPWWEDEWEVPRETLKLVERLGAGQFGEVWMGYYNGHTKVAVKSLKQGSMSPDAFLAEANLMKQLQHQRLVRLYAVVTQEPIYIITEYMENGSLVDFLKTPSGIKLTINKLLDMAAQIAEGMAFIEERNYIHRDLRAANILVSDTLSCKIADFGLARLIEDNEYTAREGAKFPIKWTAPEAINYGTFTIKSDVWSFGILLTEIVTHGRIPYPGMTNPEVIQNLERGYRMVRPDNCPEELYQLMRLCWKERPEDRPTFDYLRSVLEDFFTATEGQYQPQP
Sequence of Cannabinoid receptor 2 (P34972 whole entry): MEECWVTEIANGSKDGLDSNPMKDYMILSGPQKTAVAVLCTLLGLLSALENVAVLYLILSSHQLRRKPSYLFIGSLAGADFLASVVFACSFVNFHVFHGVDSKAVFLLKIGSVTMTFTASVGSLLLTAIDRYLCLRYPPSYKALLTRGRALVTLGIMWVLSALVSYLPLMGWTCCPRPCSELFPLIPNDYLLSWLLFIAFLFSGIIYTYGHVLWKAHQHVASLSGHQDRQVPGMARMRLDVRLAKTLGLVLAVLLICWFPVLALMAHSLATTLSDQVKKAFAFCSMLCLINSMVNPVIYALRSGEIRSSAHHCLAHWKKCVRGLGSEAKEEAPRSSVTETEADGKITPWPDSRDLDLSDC
Sequence of Sodium-dependent noradrenaline transporter (P23975 whole entry): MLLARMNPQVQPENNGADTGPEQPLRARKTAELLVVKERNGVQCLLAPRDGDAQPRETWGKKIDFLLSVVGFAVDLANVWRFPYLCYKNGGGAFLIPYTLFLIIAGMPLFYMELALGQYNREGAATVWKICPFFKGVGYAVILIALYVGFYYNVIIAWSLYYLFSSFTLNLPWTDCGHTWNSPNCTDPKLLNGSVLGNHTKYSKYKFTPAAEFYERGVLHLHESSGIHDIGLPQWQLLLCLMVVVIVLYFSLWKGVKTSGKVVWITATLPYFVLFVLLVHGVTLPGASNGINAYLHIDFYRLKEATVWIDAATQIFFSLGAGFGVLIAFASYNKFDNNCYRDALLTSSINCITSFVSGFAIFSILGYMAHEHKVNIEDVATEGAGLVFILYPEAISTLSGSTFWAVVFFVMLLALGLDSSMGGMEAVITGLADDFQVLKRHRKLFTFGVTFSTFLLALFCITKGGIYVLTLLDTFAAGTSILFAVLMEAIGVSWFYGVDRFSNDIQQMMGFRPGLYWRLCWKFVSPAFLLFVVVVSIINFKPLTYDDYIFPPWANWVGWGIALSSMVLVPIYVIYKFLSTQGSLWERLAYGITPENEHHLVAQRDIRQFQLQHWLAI

Row | SMILES | IC50 [1] [µM] | EC50 (D(2) dopamine receptor [2]) [µM] | EC50 (Adenosine receptor A2a) [µM] | IC50 [3] [µM] | EC50 [4] [µM] | EC50 (Cannabinoid receptor 2) [µM] | EC50 [5] [µM] | IC50 [6] [µM] | IC50 [7] [µM] | EC50 [8] [µM] | IC50 [9] [µM] | EC50 [10] [µM] | EC50 [11] [µM] | IC50 [12] [µM] | EC50 [13] [µM] | IC50 (Aurora kinase B) [µM] | IC50 [14] [µM] | EC50 [15] [µM] | EC50 (Mu-type opioid receptor) [µM] | IC50 [16] [µM] | further results
1 | c1ccc([C@@H]2C[C@H]2NC2CCNCC2)cc1 | > 32 | > 100 | > 100 | > 30 | > 100 | > 100 | > 25 | > 32 | > 30 | > 100 | 25 | 16 | > 30 | > 100 | > 25 | > 32 | > 100 | > 100 | > 100 | 2 | EC50 [17]: > 30 µM; EC50 [18]: > 30 µM; IC50 [19]: > 25 µM; IC50 (Acetylcholinesterase): > 100 µM; EC50 [20]: > 30 µM; EC50 (Vasopressin V1a receptor): > 30 µM; EC50 (D(1A) dopamine receptor): > 100 µM; EC50 (D(2) dopamine receptor [21]): > 100 µM; EC50 [22]: > 30 µM; EC50 (Substance-P receptor): > 25 µM; EC50 [23]: > 100 µM
2 | O=C(O)c1ccc(CN2CCC(CN[C@@H]3C[C@H]3c3ccccc3)CC2)cc1 [GSK2879552] | > 32 | 20 | > 32 | > 25 | > 32 | > 100 | > 40 | > 32 | > 30 | > 100 | > 100 | 20 | > 30 | > 100 | > 40 | > 32 | 80 | > 32 | > 100 | 80 | EC50 [17]: > 16 µM; EC50 [18]: > 16 µM; IC50 [19]: > 25 µM; IC50 (Acetylcholinesterase): > 100 µM; EC50 [20]: > 16 µM; EC50 (Vasopressin V1a receptor): > 30 µM; EC50 (D(1A) dopamine receptor): > 32 µM; EC50 (D(2) dopamine receptor [21]): > 100 µM; EC50 [22]: > 16 µM; EC50 (Substance-P receptor): > 40 µM; EC50 [23]: > 100 µM

Source: ChEMBL document CHEMBL5705903, “A DNA Hypomethylation Signature Predicts Antitumor Activity of LSD1 Inhibitors in SCLC” (Cancer Cell, 2015)
